Measurements reported in patent US20230074545A1, “TREATMENT OF CANCER WITH CDK12/13 INHIBITORS” (Kinnate Biopharma Inc., priority 2019, published 2023).

Assays:
BRCA1 = test: DDR gene expression (qPCR) in HCC70 cells; assay type: cell-based
Protocol: HCC70 (ATCC CRL-2315) cells in 96-well plate format were treated with either DMSO or compound 1 for 2 hours. After compound treatment was done for 2 hours, the plates were washed by PBS once, then fresh culture medium was added to the cells and cells were incubated for 4, 10, 22, 46, 70 hours respectively. At each time point (4, 10, 22, 46, 70 hours after 2 h washout) RNA extraction was done according to manufacturer's instructions as follows. RNA Extraction and qPCR was done using the Ambion Cell to CT kit (Cat #AM1728). Briefly, cells were removed from the incubator, washed once in PBS, lysed by adding 50 μL Lysis Solution from the kit, mixed 5 times and 5 μL Stop Solution was added to the well. All actions were done using RNAase and DNAase free labware.
The Reverse Transcription Reaction mix was then prepared. All reagents were kept in an ice-water bath during the whole operation. […]
The setting of QuantStudio®5 Real-Time qPCR System was shown in the following figure and the fluorescence gain was set at 1×.
Data Analysis was done according to the QuantStudio5 Software. Threshold of signal was calculated by QuantStudio 5 software using the default setting. The relative gene expression was evaluated using the following formulas: […]
Gene expression was detected using qPCR with the Taqman (Applied Biosystems, ThermoFisher Scientific; Carlsbad, Calif.) probe listed in Table 7. […]

RNA polymerase II = test: Phosphorylation of RNA polymerase II (pS2/S2) in HCC70 xenograft; assay type: in vivo, CB-17 SCID mice; conditions: intravenous; compound 4 20 or 25 mg/kg, compound 5 10 or 25 mg/kg; 0.5, 6 and 24 hours after the dose
Protocol: The ability of compound 4 and compound 5 to inhibit phosphorylation of RNA polymerase II at the S2 unit was analyzed in a mouse xenograft model of triple-negative breast cancer. CB-17 SCID mice were inoculated with the HCC70 cells as the in vivo model for triple negative breast cancer. Each mouse was inoculated subcutaneously on the right flank with HCC70 tumor cells (5×106) in 0.1 mL of RPMI-1640 Medium and Matrigel mixture (1:1 ratio) for tumor development. The treatment started when the mean tumor size reached approximately 100-150 mm^3. Mice were treated intravenously with vehicle only, 20 mg/kg of compound 4, 25 mg/kg of compound 4, 10 mg/kg of compound 5, or 25 mg/kg of compound 5 for 2 hours. Measurements were taken at 0.5 hours, 6 hours and 24 hours after the dose. The amount of phosphorylated RNA polymerase II and the total amount of RNA polymerase II was analyzed. The values were normalized by taking the ratio of the phosphorylated RNA polymerase II to the total RNA polymerase II (pS2/S2).

HCC70 tumors = test: HCC70 mouse xenograft model of triple-negative breast cancer; assay type: in vivo, CB-17 SCID female mice; conditions: compared to vehicle control
Description: To test the efficacy of the compounds in vivo, studies were done in mouse xenografts. For all studies, general procedures for animal care and housing were done in accordance with the standard, Commission on Life Sciences, National Research Council, Standard operating procedures (SOPs) of Pharmaron, Inc (Beijing, China). The mice were kept in laminar flow rooms at constant temperature and humidity with 3-5 mice in each cage with bedding changed once weekly. Animals were housed in polycarbonate cage which is in the size of 300×180×150 mm^3 and in an environmentally monitored, well-ventilated room maintained at a temperature of (22±3° C.) and a relative humidity of 40%-70% on a 12 hour:12 hour light:dark cycle with full spectrum lighting. […]
Each mouse was inoculated subcutaneously on the right flank with HCC70 tumor cells (5×10^6) in 0.1 ml of RPMI-1640 Medium and Matrigel mixture (1:1 ratio) for tumor development. […] All study animals were monitored not only tumor growth but also behavior such as mobility, food and water consumption (by cage side checking only), body weight (BW), eye/hair matting and any other abnormal effect. Any mortality and/or abnormal clinical signs were recorded.
The measurement of tumor size was conducted twice weekly with a caliper and recorded. […]
Protocol-required measurements and observations were recorded manually onto excel spread sheets. […]

Structure (SMILES)	levels of BRCA1 expression (BRCA1; 2 hours treatment then washout, qPCR)	time of strongest reduction in gene expression (BRCA1) (BRCA1; after treatment (post-washout)) [h]	pS2/S2 compared to treatment with the vehicle alone (RNA polymerase II)	T/C (HCC70 tumors; 20 mg/kg intravenously biweekly for 14 days) [%]	T/C (HCC70 tumors; 25 mg/kg intravenously biweekly for 14 days) [%]
C=CC(=O)Nc1ccc(C(=O)N2CC[C@@H](Nc3ncc(Cl)c(OC)n3)C2)cc1 [Compound 1, (R)-N-(4-(3-((5-chloro-4-methoxypyrimidin-2-yl)amino)pyrrolidine-1-carbonyl)phenyl)acrylamide]	reduction in levels of BRCA1 expression	10			
C=CC(=O)Nc1ccc(C(=O)N2CC[C@@H](Nc3ncc(C#N)cn3)C2)cc1 [Compound 4, (R)-N-(4-(3-((5-cyanopyrimidin-2-yl)amino)pyrrolidine-1-carbonyl)phenyl)acrylamide]			reduced the pS2/S2 at all time points	−37	−39
